# Reference: patent publication US10870638B2, “Pyridazinone compound or its salt, and herbicide containing it” (ISHIHARA SANGYO KAISHA, LTD., priority 2016, dated 2020)
# Experiments:
# Experiment in all cases: Test Example 1: foliar treatment, growth inhibition rate on 14th day
# Format in all cases: in vivo
# Conditions in all cases: active ingredient amount 31 g/ha, 14th day after application
# [1] = test system: barnyardgrass (Echinochloa crus-qalli L.)
# Excerpt: (§1) Upland field soil was put into a 1/300,000 hectare pot, and seeds of various plants were sown. When the respective plants reached predetermined leaf stage ((1) barnyardgrass (Echinochloa crus-[…].): 0.5 to 2.9 leaf stage, (2) crabgrass (Digitaria sanquinalis L.): 0.5 to 3.0 leaf stage, (3) green foxtail (Setaria viridis L.): 0.5 to 3.2 leaf stage, (4) wild oat (Avena fatua L.): 0.4 to 1.2 leaf stage, (5) italian ryegrass (Lolium multiflorum Lam.): 0.4 to 2.0 leaf stage, (6) redroot pigweed (Amaranthus retroflexus L.): cotyledon stage to 2.2 leaf stage, (7) rice (Oryza sativa L.): 0.2 to 2.7 leaf stage, (8) corn (Zea mays L.): 1.7 to 3.6 leaf stage, (9) wheat (Triticum aestivum L.): 1.3 to 2.3 leaf stage, (10) soybean (Glycine max Merr.); primary leaf stage), wettable powders or emulsifiable concentrates of the compounds of the present invention prepared in accordance with a conventional preparation method, were weighed so as to achieve the prescribed active ingredient amounts, and diluted with water in an amount corresponding to 1,000 liters per 1 hectare (containing 0.1 vol % of an agricultural spreader (surfactant WK manufactured by MARUWA BIOCHEMICAL Co., Ltd.)), and the spray solutions thus prepared were applied for foliar treatment by a small sprayer. On the 14th day after the application, the state of growth of the respective plants was visually observed, and the herbicidal effect was evaluated by a growth inhibition rate (%) of 0 (equivalent to the non-treated area) to 100 (complete kill).
# corn (Zea mays L.) = test system: corn (Zea mays L.)
# Excerpt: as §1
# [2] = test system: crabgrass (Digitaria sanquinalis L.)
# Excerpt: as §1
# [3] = test system: green foxtail (Setaria viridis L.)
# Excerpt: as §1
# [4] = test system: italian ryegrass (Lolium multiflorum Lam.)
# Excerpt: as §1
# [5] = test system: redroot pigweed (Amaranthus retroflexus L.)
# Excerpt: as §1
# rice (Oryza sativa L.) = test system: rice (Oryza sativa L.)
# Excerpt: as §1
# [6] = test system: soybean (Glycine max Merr.)
# Excerpt: as §1
# [7] = test system: wheat (Triticum aestivum L.)
# Excerpt: as §1
# [8] = test system: wild oat (Avena fatua L.)
# Excerpt: as §1
# [9] = visual, 0 = non-treated, 100 = complete kill
SMILES,Growth inhibition rate (%) Barnyardgrass [1],Growth inhibition rate (%) Corn (corn (Zea mays L.)),Growth inhibition rate (%) Crabgrass [2],Growth inhibition rate (%) Green foxtail [3],Growth inhibition rate (%) Italian ryegrass [4],Growth inhibition rate (%) Redroot pigweed [5],Growth inhibition rate (%) Rice (rice (Oryza sativa L.)),Growth inhibition rate (%) Soybean [6],Growth inhibition rate (%) Wheat [7],Growth inhibition rate (%) Wild oat [8],"Growth inhibition rate (%) Barnyardgrass [1, 9]",Growth inhibition rate (%) Corn (corn (Zea mays L.); [9]),"Growth inhibition rate (%) Crabgrass [2, 9]","Growth inhibition rate (%) Green foxtail [3, 9]","Growth inhibition rate (%) Italian ryegrass [4, 9]","Growth inhibition rate (%) Redroot pigweed [5, 9]",Growth inhibition rate (%) Rice (rice (Oryza sativa L.); [9]),"Growth inhibition rate (%) Soybean [6, 9]","Growth inhibition rate (%) Wheat [7, 9]","Growth inhibition rate (%) Wild oat [8, 9]"
Cc1ccc(Oc2cnc3cc(Cl)ccc3n2)cc1-c1c(OCc2ccccc2)c(C)nn(C)c1=O [Compound 3-41],100%,20%,95%,99%,99%,20%,10%,0%,99%,98%,–,–,–,–,–,–,–,–,–,–
Cc1ccc(Oc2cnc3cc(Cl)ccc3n2)cc1-c1c(OC(=O)C(C)(C)C)c(C)nn(C)c1=O [Compound 3-42],100%,30%,20%,98%,95%,10%,60%,0%,20%,100%,–,–,–,–,–,–,–,–,–,–
Cc1ccc(Oc2cnc3cc(Cl)ccc3n2)cc1-c1c(OC(=O)c2cn(C)nc2C)c(C)nn(C)c1=O [Compound 3-43],100%,40%,98%,100%,98%,0%,80%,10%,95%,98%,–,–,–,–,–,–,–,–,–,–
COC(=O)OC(C)Oc1c(C)nn(C)c(=O)c1-c1cc(Oc2cnc3cc(Cl)ccc3n2)ccc1C (centres unmarked) [Compound 3-44],100%,20%,99%,100%,98%,0%,85%,10%,85%,100%,–,–,–,–,–,–,–,–,–,–
COC(=O)CCC(=O)Oc1c(C)nn(C)c(=O)c1-c1cc(Oc2cnc3cc(Cl)ccc3n2)ccc1C [Compound 3-46],–,–,–,–,–,–,–,–,–,–,100%,50%,99%,100%,100%,20%,98%,35%,98%,100%
Cc1ccc(Oc2cnc3cc(Cl)ccc3n2)cc1-c1c(OC(=O)Cc2ccccc2)c(C)nn(C)c1=O [Compound 3-47],–,–,–,–,–,–,–,–,–,–,100%,40%,99%,100%,99%,0%,30%,20%,98%,99%
Cc1ccc(Oc2cnc3cc(Cl)ccc3n2)cc1-c1c(OC(=O)CC(C)(C)C)c(C)nn(C)c1=O [Compound 3-53],–,–,–,–,–,–,–,–,–,–,100%,0%,93%,95%,65%,0%,40%,0%,0%,60%
CCCSC(=O)Oc1c(C)nn(C)c(=O)c1-c1cc(Oc2cnc3cc(Cl)ccc3n2)ccc1C [Compound 3-56],–,–,–,–,–,–,–,–,–,–,98%,40%,99%,100%,98%,0%,0%,30%,93%,99%
Cc1ccc(Oc2cnc3cc(Cl)ccc3n2)cc1-c1c(OC(=O)OC(C)C)c(C)nn(C)c1=O [Compound 3-60],–,–,–,–,–,–,–,–,–,–,99%,20%,95%,100%,95%,0%,10%,10%,93%,98%
Cc1ccc(Oc2cnc3cc(Cl)ccc3n2)cc1-c1c(OC(=O)OC2CC(C)CCC2C(C)C)c(C)nn(C)c1=O (centres unmarked) [Compound 3-61],–,–,–,–,–,–,–,–,–,–,0%,20%,20%,60%,0%,0%,0%,0%,0%,0%
Cc1ccc(Oc2cnc3cc(Cl)ccc3n2)cc1-c1c(OC(=S)Oc2ccccc2)c(C)nn(C)c1=O [Compound 3-62],–,–,–,–,–,–,–,–,–,–,100%,60%,99%,99%,93%,0%,0%,20%,90%,99%
Cc1ccc(Oc2cnc3cc(Cl)ccc3n2)cc1-c1c(OC(=S)Sc2ccccc2)c(C)nn(C)c1=O [Compound 3-63],–,–,–,–,–,–,–,–,–,–,100%,40%,98%,100%,90%,0%,0%,0%,83%,98%
Cc1ccc(Oc2cnc3cc(Cl)ccc3n2)cc1-c1c(OC(=O)N(C)C)c(C)nn(C)c1=O [Compound 3-65],–,–,–,–,–,–,–,–,–,–,100%,40%,83%,99%,85%,0%,0%,10%,98%,75%
Cc1ccc(Oc2cnc3cc(Cl)ccc3n2)cc1-c1c(OC(=O)N(C)c2ccccc2)c(C)nn(C)c1=O [Compound 3-66],–,–,–,–,–,–,–,–,–,–,10%,25%,20%,35%,40%,0%,0%,0%,10%,50%
